According to the NIST ThermoML archive (doi:10.1007/s10765-005-8592-5):
Values joined by “and” are separate entries in the source; they are usually repeats but may differ in a detail not shown here. Equal values may be shown once. ± gives the expanded uncertainty stated by the source.

Assay: molar heat capacity at constant volume
Conditions: Fluid (supercritical or subcritical phases), Vacuum adiabatic calorimetry

CC(C)C [2-methylpropane]
Conditions	molar heat capacity at constant volume
415.15 K, 4254 kPa	222.08 ± 9 J/K/mol and 230.8 ± 9.3 J/K/mol
420.15 K, 4664 kPa	202.67 ± 8.1 J/K/mol
420.15 K, 4665 kPa	202.96 ± 8.1 J/K/mol
425.15 K, 5082 kPa	186.05 ± 8 J/K/mol
425.15 K, 5083 kPa	187.1 ± 8.4 J/K/mol

CCC [propane]
Conditions	molar heat capacity at constant volume [J/K/mol]
270.15 K, 4427 kPa	71.74 ± 2.9
275.15 K, 7953 kPa	71.26 ± 2.9
280.15 K, 11458 kPa	71.3 ± 2.9
285.15 K, 14939 kPa	72.63 ± 2.9
290.15 K, 18398 kPa	73.46 ± 3
295.15 K, 21836 kPa	74.57 ± 3
300.15 K, 25251 kPa	74.61 ± 3
305.15 K, 28640 kPa	74.35 ± 3
310.15 K, 6561 kPa	74.57 ± 3
315.15 K, 9049 kPa	75.23 ± 3
320.15 K, 11532 kPa	76.15 ± 3
325.15 K, 3660 kPa	77.96 ± 3.1
325.15 K, 14008 kPa	76.37 ± 3
330.15 K, 5594 kPa	78.75 ± 3.2
330.15 K, 16475 kPa	76.64 ± 3.1
335.15 K, 7530 kPa	78.31 ± 3.1
335.15 K, 18934 kPa	76.9 ± 3.1
340.15 K, 9468 kPa	77.7 ± 3.1
340.15 K, 21386 kPa	77.21 ± 3.1
345.15 K, 11404 kPa	77.26 ± 3.1
345.15 K, 23827 kPa	76.33 ± 3
350.15 K, 13339 kPa	79.46 ± 3.2
350.15 K, 26253 kPa	77.52 ± 3.1
355.15 K, 15273 kPa	77.39 ± 3.1
355.15 K, 28668 kPa	77.43 ± 3.1
360.15 K, 17203 kPa	77.74 ± 3.1
365.15 K, 19126 kPa	78.62 ± 3.1
370.15 K, 21044 kPa	79.15 ± 3.2
375.15 K, 5095 kPa	98.6 ± 4
380.15 K, 5744 kPa	93.04 ± 3.7
385.15 K, 6404 kPa	89.6 ± 3.6
390.15 K, 7072 kPa	86.07 ± 3.4
395.15 K, 7746 kPa	84.84 ± 3.4
400.15 K, 8425 kPa	80.43 ± 5.6
405.15 K, 9109 kPa	78.84 ± 3.2
410.15 K, 9795 kPa	79.99 ± 3.2
420.15 K, 11176 kPa	79.81 ± 3.2
425.15 K, 11869 kPa	81.75 ± 3.3
